Assay results reported in the supplement of paper PMC10307832.

Key:
Test in all cases: relative viability (nuclei count vs DMSO), 5 days (fraction); higher = more cells survive
[1] = compound: CCC1=CN=CN=C1N2CCN(CC2)CC3=NC4=C(N3)C=C(C=C4)C(F)(F)F + CS(=O)(=O)N1CCN(Cc2cc3nc(-c4cccc5[nH]ncc45)nc(N4CCOCC4)c3s2)CC1 [Pictilisib] (partner 1 µM)
In short: (§1)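 Each reported value is a median over duplicate plates. It expresses relative viability: treated-well nuclei count divided by vehicle-well nuclei count. Lung cancer cell lines in 1536-well plates were dosed by pin tool a day after seeding, alone with one drug or with a fixed anchor-drug dose plus five library-drug doses (not always all listed) in √10 steps, and nuclei were counted after 5 days.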

[2] = compound: CCn1c(-c2nonc2N)nc2cnc(Oc3cccc(NC(=O)c4ccc(OCCN5CCOCC5)cc4)c3)cc21 + CS(=O)(=O)CCNCc1ccc(-c2ccc3ncnc(Nc4ccc(OCc5cccc(F)c5)c(Cl)c4)c3c2)o1 [Lapatinib] (partner 2 µM)
In short: as §1

Mirin + Navitoclax = compound: N=C1NC(=O)/C(=C/c2ccc(O)cc2)S1 [Mirin] + CC1(C)CCC(c2ccc(Cl)cc2)=C(CN2CCN(c3ccc(C(=O)NS(=O)(=O)c4ccc(N[C@H](CCN5CCOCC5)CSc5ccccc5)c(S(=O)(=O)C(F)(F)F)c4)cc3)CC2)C1 [Navitoclax] (partner 0.5 µM)
In short: as §1

Mirin + Linsitinib = compound: N=C1NC(=O)/C(=C/c2ccc(O)cc2)S1 [Mirin] + C[C@]1(O)C[C@@H](c2nc(-c3ccc4ccc(-c5ccccc5)nc4c3)c3c(N)nccn32)C1 [Linsitinib] (partner 1 µM)
In short: as §1

Row | Cell Line | relative viability ([1]; first compound 0.04 µM) | relative viability ([1]; first compound 0.1265 µM) | relative viability ([1]; first compound 0.4 µM) | relative viability ([1]; first compound 4 µM) | relative viability ([2]; first compound 0.04 µM) | relative viability ([2]; first compound 0.1265 µM) | relative viability ([2]; first compound 0.4 µM) | relative viability ([2]; first compound 1.265 µM) | relative viability ([2]; first compound 4 µM) | relative viability (Mirin + Navitoclax; first compound 0.25 µM) | relative viability (Mirin + Navitoclax; first compound 0.7906 µM) | relative viability (Mirin + Navitoclax; first compound 2.5 µM) | relative viability (Mirin + Navitoclax; first compound 7.906 µM) | relative viability (Mirin + Navitoclax; first compound 25 µM) | relative viability (Mirin + Linsitinib; first compound 0.25 µM) | relative viability (Mirin + Linsitinib; first compound 0.7906 µM) | relative viability (Mirin + Linsitinib; first compound 2.5 µM) | relative viability (Mirin + Linsitinib; first compound 7.906 µM) | relative viability (Mirin + Linsitinib; first compound 25 µM) | relative viability ([1]; first compound 1.265 µM)
1 | HCC-366 | 0.242 | 0.124 | 0.133 | 0.134 | 1.25 | 1.01 | 0.251 | 0.0431 | 0.0373 | 1.1 | 1.02 | 1.06 | 1.1 | 0.958 | 0.677 | 0.468 | 0.903 | 0.644 | 0.316 | –
2 | NCI-H2085 | 0.468 | 0.426 | 0.412 | 0.429 | 0.865 | 0.75 | 0.684 | 0.602 | 0.714 | 0.978 | 1.17 | 1.25 | 1.12 | 1.09 | 0.943 | 1.01 | 0.898 | 0.819 | 0.882 | 0.296
3 | PC-3 [JPC-3] | 0.704 | 0.657 | 0.604 | 0.697 | 0.527 | 0.499 | 0.438 | 0.573 | 0.522 | 0.826 | 0.813 | 0.812 | 0.869 | 0.904 | 1.01 | 1.03 | 0.988 | 1.07 | 1.03 | 0.739
4 | HOP-62 | 0.661 | 0.669 | 0.705 | 0.76 | 1.16 | 1.02 | 0.996 | 0.866 | 0.461 | 1.03 | 1.02 | 0.955 | 0.888 | 1.43 | 1.09 | 0.856 | 0.937 | – | 0.866 | 0.642
5 | NCI-H2126 | 0.518 | 0.496 | 0.493 | 0.496 | 0.764 | 0.782 | 0.541 | 0.742 | 0.825 | 0.811 | 0.81 | 0.819 | 0.852 | 0.85 | 0.713 | 0.707 | 0.756 | 0.639 | 0.698 | 0.442
6 | NCI-H2087 | 0.852 | 0.906 | 0.883 | 0.653 | – | 0.693 | 0.871 | 0.499 | 0.677 | 1.01 | 1.21 | 0.944 | 1.27 | 1.03 | 0.992 | 1.11 | 0.915 | 1.23 | 0.841 | 0.819
7 | NCI-H1793 | 0.329 | 0.304 | 0.428 | 0.328 | 0.555 | 0.569 | 0.582 | 0.414 | 0.418 | 0.55 | 0.36 | 0.395 | 0.656 | 0.371 | 0.816 | 0.794 | 0.902 | 0.947 | 0.641 | –
8 | RERF-LC-KJ | 0.558 | 0.498 | 0.487 | 0.505 | 0.933 | 0.827 | 0.717 | 0.684 | 0.606 | 0.979 | 0.862 | 0.989 | 1.08 | 1.1 | 0.962 | 0.908 | 0.88 | 0.896 | 0.913 | 0.444
9 | H3255 | 0.5 | 0.507 | 0.446 | 0.455 | 0.293 | 0.305 | 0.237 | 0.271 | 0.256 | 0.499 | 0.59 | 0.628 | 0.513 | 0.47 | 0.9 | 0.886 | 0.972 | 0.954 | 0.97 | 0.423
10 | EMC-BAC-2 | 0.571 | 0.491 | 0.479 | 0.608 | 0.931 | 0.955 | 0.543 | 0.645 | 0.588 | 1.16 | 1.29 | 1.17 | 1.08 | 1.17 | 0.793 | 0.825 | 0.883 | 0.853 | 0.815 | 0.349
11 | CAL-12T | – | 0.541 | 0.295 | 0.361 | 1.25 | 0.817 | 0.849 | – | 0.685 | 0.854 | 1.49 | 1.26 | 1.26 | 1.66 | 0.856 | 0.726 | 0.825 | 0.856 | 0.838 | 0.314
12 | SK-MES-1 | 0.431 | 0.354 | 0.346 | 0.38 | 0.493 | 0.434 | 0.404 | 0.453 | 0.401 | 1.2 | 1.34 | 1.23 | 1.19 | 1.4 | 1.06 | 1.22 | 1.18 | 1.07 | 1.26 | 0.282
13 | EBC-1 | 0.459 | 0.318 | 0.333 | 0.352 | 0.224 | 0.206 | 0.196 | 0.179 | 0.197 | 0.419 | 0.479 | 0.456 | 0.368 | 0.144 | 1.06 | 1.07 | 0.872 | 0.875 | 0.974 | 0.261
14 | NCI-H1355 | 0.541 | 0.414 | 0.361 | 0.453 | 1.07 | 0.978 | 0.712 | 0.62 | 0.597 | 1 | 0.989 | 1.07 | 0.897 | 0.979 | 0.799 | 0.852 | 0.975 | 0.861 | 0.747 | 0.293
15 | PC-14 | 0.845 | 0.621 | 0.671 | 0.6 | 0.343 | 0.227 | 0.232 | 0.264 | 0.283 | 1.04 | 1.04 | 1.08 | 1.03 | 1.17 | 0.929 | 0.959 | 1.03 | 0.97 | 1.08 | 0.573
16 | LK-2 | 0.575 | 0.462 | 0.436 | 0.56 | 1.2 | 0.95 | 0.605 | 0.706 | 0.949 | 0.752 | 0.625 | 0.799 | 0.588 | 0.525 | 0.321 | 0.317 | 0.516 | 0.282 | 0.174 | 0.42
